Test results published in patent US9074188B2, “Cardiomyocyte- and/or cardiac progenitor cell-proliferating agent and method for proliferating cardiomyocytes and/or cardiac progenitor cells” (KYOTO UNIVERSITY, priority 2010, dated 2015).

What was measured:
[1] = system: Flkd6 cardiomyocytes whose differentiation was induced from mouse ES cells EMG-7; experiment: Proliferation of mouse ES cell (EMG-7)-derived cardiomyocytes Flkd6: number of alpha-MHC-GFP-positive cells; assay type: cell-based; conditions: for number of alpha-MHC-GFP-positive cells after addition (screening): Flkd6 purified by FACS, cultured for 5 days, 1 μM BIO, 5 μM SU1498, 5 μM KN93, FIG. 1a; for number of alpha-MHC-GFP-positive cells by FACS: cultured for 2 days (Flkd6+2) or 5 days (Flkd6+5), especially Flkd6+5, FIG. 1b; for cardiomyocyte-proliferation-promoting effect (number of alpha-MHC-GFP-positive cells per well): Flkd6+5, FIGS. 3a, 3b, 3d
Method: The human iPS cells (253G1) were provided by Prof. […] 253G1 cells are available from RIKEN BRC.
Thereafter, Flk1-positive cells were separated using FACS, and the separated cells were cultured on OP9 cells using a 3 μg/ml Cyclosporine A-containing medium (alpha MEM supplemented with 10% FBS) for 6 days, to induce differentiation into cardiomyocytes. These cells are hereinafter referred to as Flkd6.
The above-mentioned Flkd6, obtained by differentiation of EMG-7, was subjected to purification by FACS using alpha-MHC-GFP as an index. […] These three agents were added to Flkd6, and the cells were then cultured for 2 days (Flkd6+2) or 5 days (Flkd6+5), followed by measuring the number of alpha-MHC-GFP-positive cells by FACS.

[2] = system: Flkd6 cardiomyocytes whose differentiation was induced from EMG-7; experiment: Influence on cell cycle: cells positive for pH3 (M phase) or EdU (S phase) in Flkd6; assay type: cell-based, mouse; conditions: Flkd6 cultured with agent; FIG. 2
Method: DMSO is a control wherein only a solvent was added.
In order to examine the influence on the cell cycle, the number of cells positive for phosphorylation of histone 3 (pH3) (M phase) or ethynyl […] (EdU) (S phase) was assayed (FIG. 2a-d).

SMILES | number of alpha-MHC-GFP-positive cells after addition (screening) [1] | number of alpha-MHC-GFP-positive cells by FACS [1] | influence on the cell cycle: pH3 (M phase) or EdU (S phase) positive cells [2] | cardiomyocyte-proliferation-promoting effect (number of alpha-MHC-GFP-positive cells per well) [1]
O=C1Nc2cc(Br)ccc2/C1=C1/Nc2ccccc2/C1=N\O [BIO, 6-bromoindirubin 3′-oxime] | significantly increased the number of alpha-MHC-GFP-positive cells | significant increase in the number of the positive cells | promotes the S phase and the M phase from the early stage after its addition | –
Cc1c[nH]c(-c2cnc(NCCNc3ccc(C#N)cn3)nc2-c2ccc(Cl)cc2Cl)n1 [CHIR99021] | – | – | – | also have similar effects
CN([C@@H](Cc1ccc(OS(=O)(=O)c2cccc3cnccc23)cc1)C(=O)N1CCN(c2ccccc2)CC1)S(=O)(=O)c1cccc2cnccc12 [KN62, 1-[N,O-bis(5-isoquinolinesulfonyl)-N-methyl-L-tyrosyl]-4-phenylpiperazine] | – | – | – | also have similar effects
COc1ccc(S(=O)(=O)N(CCO)c2ccccc2CN(C)CC=Cc2ccc(Cl)cc2)cc1 [KN93] | significantly increased the number of alpha-MHC-GFP-positive cells | significant increase in the number of the positive cells | – | –
CC(C)c1cc(/C=C(\C#N)C(=O)NCCCc2ccccc2)cc(C(C)C)c1O [SU1498, (E)-3-(3,5-diisopropyl-4-hydroxyphenyl)-2-[(3-phenyl-n-propyl)aminocarbonyl]acrylonitrile] | significantly increased the number of alpha-MHC-GFP-positive cells | significant increase in the number of the positive cells | – | –
Cc1ccc(NC(=O)c2cccc(N(C)C)c2)cc1NC(=O)c1ccc(O)cc1 [ZM336372, 3-(dimethylamino)-N-[3-[(4-hydroxybenzoyl)amino]-4-methylphenyl]benzamide] | – | – | – | has a cardiomyocyte-proliferation-promoting effect
